Test results: patent US20220331303A1, “USE OF AN OREXIN 2 RECEPTOR AGONIST FOR THE TREATMENT OF EXCESSIVE SLEEPINESS” (Takeda Pharmaceutical Company Limited, priority 2019, published 2022)
Read-outs that look alike come from different tables or passages of the source.

What was measured:
Type in all cases: in vivo, human
[1] = Multiple-dose plasma PK of IV Compound A in patients with NT2; settings: for Cmax / concentration at 1 h / concentration at 2 h / concentration at 4 h / concentration at 6 h / concentration at 9 h / Tmax / AUC(0-inf) / AUC(0-t) / AUC / clearance / Vd: human, plasma, intravenous; for concentration at 1 h: 1 Hour Postdose at Day 1; for concentration at 2 h: 2 Hours Postdose at Day 1; for concentration at 4 h: 4 Hours Postdose at Day 1; for concentration at 6 h: 6 Hours Postdose at Day 1; for clearance: read-out: CL Mean (converted)
Experimental: (§1) The purpose of the study was to evaluate the safety, tolerability, pharmacokinetics and pharmacodynamics of Compound A after multiple days of IV administration in patients with NT2. NT2 patients were evaluated in Cohort C1 and C2 (Table 30). Compound A or placebo were administered via IV infusion over 9 hours once daily for 7 days. A total of 14 patients with NT2 were treated with Compound A or placebo (5, 4, and 5 subjects in the placebo, Compound A 44 mg, and Compound A 112 mg groups, respectively). In this part, potential efficacy of Compound A was evaluated with MWT, ESS, KSS, night-time PSG (NPSG), and PGI-C as an exploratory PD assessment.
Blood samples used for PK analysis of Compound A was collected according to Table 31. See also FIG. 10 for whole schedules of study procedures.

[2] = system: subjects with obstructive sleep apnea; assay: KSS in subjects with OSA experiencing EDS despite CPAP
Experimental: On Day 1 of Treatment Period 1, all eligible subjects were randomized and received the first dose of study drug. Compound A or placebo was administered as a single 9-hour IV infusion commencing at approximately 08:00. On each dosing day (Study Days 1, 3, and 5), 40-minute MWT sessions were performed at 2, 4, 6, and 8 hours after the start of the infusion. There was a minimum 24-hour washout interval between the end of the infusion and the commencement of treatment in subsequent treatment periods to allow for complete elimination of the preceding treatment effect. The KSS and PVT were collected per the Schedule of Study Procedures. Blood samples for determination of Compound A plasma concentrations were collected predose and at specified time points postdose, Safety assessments were recorded. During the study, AEs were recorded, clinical laboratory tests, vital signs, and safety ECGs were obtained. Study Days 2, 4, and 6 were washout days. Subjects were discharged from the unit following completion of study exit procedures in the afternoon of Study Day 6 (Day 2 of Treatment Period 3). Subjects were contacted by telephone approximately 7 days (±2 days) following unit discharge for a safety check.

patients with NT2 = assay: Epworth Sleepiness Scale (ESS) in patients with NT2; parameters: scale not given here; settings: Day 7
Experimental: as §1

- Plasma Concentration Mean ([1]; Cmpd A 44 mg, 0.17 Hour after End of Infusion at Day 1): 45.48 ng/mL
- Plasma Concentration Mean ([1]; Cmpd A 44 mg, 0.5 Hour after End of Infusion at Day 1): 33.98 ng/mL
- Plasma Concentration Mean ([1]; Cmpd A 44 mg, 2 Hours after End of Infusion at Day 1): 16.33 ng/mL
- Plasma Concentration Mean ([1]; Cmpd A 44 mg, 6 Hours after End of Infusion at Day 1): 5.020 ng/mL
- Plasma Concentration Mean ([1]; Cmpd A 44 mg, 9 Hours Postdose at Day 5): 73.15 ng/mL
- Plasma Concentration Mean ([1]; Cmpd A 44 mg, 9 Hours Postdose at Day 6): 65.80 ng/mL
- Plasma Concentration Mean ([1]; Cmpd A 44 mg, 10 Hours after End of Infusion at Day 1): 2.515 ng/mL
- Plasma Concentration Mean ([1]; Cmpd A 44 mg, 14 Hours after End of Infusion at Day 1): 0.7016 ng/mL
- AUCtau D Mean ([1]; Cmpd A 44 mg, Day 1): 14.83 ng·h/mL/mg
- Cmax D Mean ([1]; Cmpd A 44 mg, Day 1): 1.685 ng/mL/mg
- t½z Mean ([1]; Cmpd A 44 mg, Day 1): 2.708 h
- AUCtau D Mean ([1]; Cmpd A 44 mg, Day 7): 15.00 ng·h/mL/mg
- Cmax D Mean ([1]; Cmpd A 44 mg, Day 7): 1.745 ng/mL/mg
- PTR Mean ([1]; Cmpd A 44 mg, Day 7): 202.0
- UCtau Geo Mean ([1]; Cmpd A 44 mg, Day 7): 657.1 ng·h/mL
- UCtau Mean ([1]; Cmpd A 44 mg, Day 7): 660.0 ng·h/mL
- t½z Mean ([1]; Cmpd A 44 mg, Day 7): 2.643 h
- Plasma Concentration Mean ([1]; Cmpd A 44 mg, Predose at Day 1): 0.000 ng/mL
- Plasma Concentration Mean ([1]; Cmpd A 44 mg, Predose at Day 5): 0.9273 ng/mL
- Plasma Concentration Mean ([1]; Cmpd A 44 mg, Predose at Day 6): 0.7163 ng/mL
- Plasma Concentration Mean ([1]; Cmpd A 44 mg, Predose at Day 7): 0.5635 ng/mL
- Plasma Concentration Mean ([1]; Cmpd A 112 mg, 0.17 Hour after End of Infusion at Day 1): 81.03 ng/mL
- Plasma Concentration Mean ([1]; Cmpd A 112 mg, 0.5 Hour after End of Infusion at Day 1): 75.26 ng/mL
- Plasma Concentration Mean ([1]; Cmpd A 112 mg, 2 Hours after End of Infusion at Day 1): 32.46 ng/mL
- Plasma Concentration Mean ([1]; Cmpd A 112 mg, 6 Hours after End of Infusion at Day 1): 12.03 ng/mL
- Plasma Concentration Mean ([1]; Cmpd A 112 mg, 10 Hours after End of Infusion at Day 1): 5.610 ng/mL
- AUCtau D Mean ([1]; Cmpd A 112 mg, Day 1): 13.52 ng·h/mL/mg
- Cmax D Mean ([1]; Cmpd A 112 mg, Day 1): 1.540 ng/mL/mg
- t½z Mean ([1]; Cmpd A 112 mg, Day 1): 2.800 h
- AUCtau D Mean ([1]; Cmpd A 112 mg, Day 7): 13.68 ng·h/mL/mg
- Cmax D Mean ([1]; Cmpd A 112 mg, Day 7): 1.550 ng/mL/mg
- PTR Mean ([1]; Cmpd A 112 mg, Day 7): 201.1
- UCtau Geo Mean ([1]; Cmpd A 112 mg, Day 7): 1519 ng·h/mL
- UCtau Mean ([1]; Cmpd A 112 mg, Day 7): 1534 ng·h/mL
- t½z Mean ([1]; Cmpd A 112 mg, Day 7): 3.136 h
- Plasma Concentration Mean ([1]; Cmpd A 112 mg, Predose at Day 1): 0.000 ng/mL
- Drug accumulation ([1]; QD 9-hour IV infusion daily for 7 days): no drug accumulation was observed
- Cmax ([1]; 44 mg, Cmax Geo Mean, Cmpd A 44 mg, Day 7): 76.4 ng/mL
- concentration at 1 h ([1]; 44 mg, Cmpd A 44 mg): 47.4 ng/mL
- concentration at 2 h ([1]; 44 mg, Cmpd A 44 mg): 59 ng/mL
- concentration at 4 h ([1]; 44 mg, Cmpd A 44 mg): 74.1 ng/mL
- concentration at 6 h ([1]; 44 mg, Cmpd A 44 mg): 50 ng/mL
- concentration at 9 h ([1]; 44 mg, Cmpd A 44 mg, 9 Hours Postdose at Day 1, read-out: Plasma Concentration Mean): 69 ng/mL
- Tmax ([1]; 44 mg, Cmpd A 44 mg, Day 1): 3.88 h
- AUC(0-inf) ([1]; 44 mg, Cmpd A 44 mg, Day 1, read-out: AUCinf Geo mean): 651 ng·h/mL
- AUC(0-inf) ([1]; 44 mg, Cmpd A 44 mg, Day 1, read-out: AUCinf Mean): 655 ng·h/mL
- AUC(0-t) ([1]; 44 mg, Cmpd A 44 mg, Day 1, read-out: AUClast Geo mean): 648 ng·h/mL
- AUC(0-t) ([1]; 44 mg, Cmpd A 44 mg, Day 1, read-out: AUClast Mean): 652 ng·h/mL
- AUC ([1]; 44 mg, Cmpd A 44 mg, Day 1, read-out: AUCtau Geo mean): 648 ng·h/mL
- AUC ([1]; 44 mg, Cmpd A 44 mg, Day 1, read-out: AUCtau Mean): 652 ng·h/mL
- clearance ([1]; 44 mg, Cmpd A 44 mg, Day 1): 1130 mL/min
- concentration at 9 h ([1]; 44 mg, Cmpd A 44 mg, Day 1, read-out: Ceoi Geo mean): 68.7 ng/mL
- concentration at 9 h ([1]; 44 mg, Cmpd A 44 mg, Day 1, read-out: Ceoi Mean): 69 ng/mL
- Cmax ([1]; 44 mg, Cmpd A 44 mg, Day 1, read-out: Cmax Geo mean): 73.9 ng/mL
- Cmax ([1]; 44 mg, Cmpd A 44 mg, Day 1, read-out: Cmax Mean): 74.1 ng/mL
- Vd ([1]; 44 mg, Cmpd A 44 mg, Day 1, read-out: Vss Mean): 122 L
- Vd ([1]; 44 mg, Cmpd A 44 mg, Day 1, read-out: Vz Mean): 288 L
- Tmax ([1]; 44 mg, Cmpd A 44 mg, Day 7): 3.91 h
- AUC(0-t) ([1]; 44 mg, Cmpd A 44 mg, Day 7, read-out: AUClast Geo Mean): 657 ng·h/mL
- AUC(0-t) ([1]; 44 mg, Cmpd A 44 mg, Day 7, read-out: AUClast Mean): 660 ng·h/mL
- clearance ([1]; 44 mg, Cmpd A 44 mg, Day 7): 1120 mL/min
- Cmax ([1]; 44 mg, Cmpd A 44 mg, Day 7, read-out: Cmax Mean): 76.7 ng/mL
- Vd ([1]; 44 mg, Cmpd A 44 mg, Day 7, read-out: Vss Mean): 114 L
- Vd ([1]; 44 mg, Cmpd A 44 mg, Day 7, read-out: Vz Mean): 258 L
- Cmax ([1]; 112 mg, Cmax Geo Mean, Cmpd A 112 mg, Day 7): 172 ng/mL
- concentration at 1 h ([1]; 112 mg, Cmpd A 112 mg): 123 ng/mL
- concentration at 2 h ([1]; 112 mg, Cmpd A 112 mg): 142 ng/mL
- concentration at 4 h ([1]; 112 mg, Cmpd A 112 mg): 170 ng/mL
- concentration at 6 h ([1]; 112 mg, Cmpd A 112 mg): 138 ng/mL
- concentration at 9 h ([1]; 112 mg, Cmpd A 112 mg, 9 Hours Postdose at Day 1, read-out: Plasma Concentration Mean): 150 ng/mL
- Tmax ([1]; 112 mg, Cmpd A 112 mg, Day 1): 4.93 h
- AUC(0-inf) ([1]; 112 mg, Cmpd A 112 mg, Day 1, read-out: AUCinf Geo mean): 1500 ng·h/mL
- AUC(0-inf) ([1]; 112 mg, Cmpd A 112 mg, Day 1, read-out: AUCinf Mean): 1520 ng·h/mL
- AUC(0-t) ([1]; 112 mg, Cmpd A 112 mg, Day 1, read-out: AUClast Geo mean): 1500 ng·h/mL
- AUC(0-t) ([1]; 112 mg, Cmpd A 112 mg, Day 1, read-out: AUClast Mean): 1520 ng·h/mL
- AUC ([1]; 112 mg, Cmpd A 112 mg, Day 1, read-out: AUCtau Geo mean): 1500 ng·h/mL
- AUC ([1]; 112 mg, Cmpd A 112 mg, Day 1, read-out: AUCtau Mean): 1520 ng·h/mL
- clearance ([1]; 112 mg, Cmpd A 112 mg, Day 1): 1260 mL/min
- concentration at 9 h ([1]; 112 mg, Cmpd A 112 mg, Day 1, read-out: Ceoi Geo mean): 156 ng/mL
- concentration at 9 h ([1]; 112 mg, Cmpd A 112 mg, Day 1, read-out: Ceoi Mean): 158 ng/mL
- Cmax ([1]; 112 mg, Cmpd A 112 mg, Day 1, read-out: Cmax Geo mean): 171 ng/mL
- Cmax ([1]; 112 mg, Cmpd A 112 mg, Day 1, read-out: Cmax Mean): 172 ng/mL
- Vd ([1]; 112 mg, Cmpd A 112 mg, Day 1, read-out: Vss Mean): 121 L
- Vd ([1]; 112 mg, Cmpd A 112 mg, Day 1, read-out: Vz Mean): 299 L
- AUC(0-t) ([1]; 112 mg, Cmpd A 112 mg, Day 7, read-out: AUClast Geo Mean): 1520 ng·h/mL
- AUC(0-t) ([1]; 112 mg, Cmpd A 112 mg, Day 7, read-out: AUClast Mean): 1530 ng·h/mL
- clearance ([1]; 112 mg, Cmpd A 112 mg, Day 7): 1240 mL/min
- Cmax ([1]; 112 mg, Cmpd A 112 mg, Day 7, read-out: Cmax Mean): 173 ng/mL
- Vd ([1]; 112 mg, Cmpd A 112 mg, Day 7, read-out: Vss Mean): 124 L
- Vd ([1]; 112 mg, Cmpd A 112 mg, Day 7, read-out: Vz Mean): 338 L
SMILES: COC(=O)N1CCC[C@H](NS(C)(=O)=O)[C@@H]1CO[C@H]1CC[C@@H](c2ccccc2)CC1 [Compound A, methyl (2R,3S)-3-((methylsulfonyl)amino)-2-(((cis-4-phenylcyclohexyl)oxy)methyl)piperidine-1-carboxylate]
- Dose proportionality of mean plasma systemic exposures ([1]; daily 9-hour IV infusions, 44 and 112 mg): generally increased in a dose proportional manner
- Mean placebo-adjusted decrease in KSS ([2]; Compound A 44 mg): −1.6
- Mean placebo-adjusted decrease in KSS ([2]; Compound A 112 mg): −2.4
- ESS Change from Baseline Mean (patients with NT2; Compound A 44 mg): −3.8
- ESS Change from Baseline Median (patients with NT2; Compound A 44 mg): −3.5
- ESS Observed Value Mean (patients with NT2; Compound A 44 mg): 13.3
- ESS Observed Value Median (patients with NT2; Compound A 44 mg): 14.0
- Mean ESS score (patients with NT2; Compound A 44 mg): 13.3
- Mean change from baseline in ESS (patients with NT2; Compound A 44 mg): −3.8
- ESS Change from Baseline Mean (patients with NT2; Compound A 112 mg): −12.2
- ESS Change from Baseline Median (patients with NT2; Compound A 112 mg): −13.0
- ESS Observed Value Mean (patients with NT2; Compound A 112 mg): 6.0
- ESS Observed Value Median (patients with NT2; Compound A 112 mg): 4.0
- Mean ESS score (patients with NT2; Compound A 112 mg): 6.0
- Mean change from baseline in ESS (patients with NT2; Compound A 112 mg): −12.2
